Measurements from the supplement of paper PMC10307832.

Assays:
Experiment in all cases: relative viability (nuclei count vs DMSO), 5 days (fraction); higher = more cells survive
kb NB 142-70 + AZD7762 = compound: C1CSC2=C(C(=O)N1)SC3=C2C=C(C=C3)O [kb NB 142-70] + NC(=O)Nc1cc(-c2cccc(F)c2)sc1C(=O)N[C@H]1CCCNC1 [AZD7762] (partner 0.2 µM)
Outline: (§1)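 Lung cancer cell lines in 1536-well plates got either a single drug or a fixed anchor-drug dose together with five library-drug doses (not always all listed) in √10 steps, by pin tool, on the day after seeding. Nuclei were counted after 5 days, and relative viability is the treated-to-vehicle ratio of nuclei counts. Values are medians of duplicate plates.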

[1] = compound: C1CSC2=C(C(=O)N1)SC3=C2C=C(C=C3)O [kb NB 142-70] + CS(=O)(=O)N1CCN(Cc2cc3nc(-c4cccc5[nH]ncc45)nc(N4CCOCC4)c3s2)CC1 [Pictilisib] (partner 1 µM)
Outline: as §1

[2] = compound: NCC(=O)Nc1ccc(-n2nc(C(F)(F)F)cc2-c2ccc3c(ccc4ccccc43)c2)cc1 + CCNC(=O)c1noc(-c2cc(C(C)C)c(O)cc2O)c1-c1ccc(CN2CCOCC2)cc1 [Luminespib] (partner 0.01 µM)
Outline: as §1

[3] = compound: C1CSC2=C(C(=O)N1)SC3=C2C=C(C=C3)O [kb NB 142-70] + CC1(C)CCC(c2ccc(Cl)cc2)=C(CN2CCN(c3ccc(C(=O)NS(=O)(=O)c4ccc(N[C@H](CCN5CCOCC5)CSc5ccccc5)c(S(=O)(=O)C(F)(F)F)c4)cc3)CC2)C1 [Navitoclax] (partner 0.5 µM)
Outline: as §1

kb NB 142-70 + Lapatinib = compound: C1CSC2=C(C(=O)N1)SC3=C2C=C(C=C3)O [kb NB 142-70] + CS(=O)(=O)CCNCc1ccc(-c2ccc3ncnc(Nc4ccc(OCc5cccc(F)c5)c(Cl)c4)c3c2)o1 [Lapatinib] (partner 2 µM)
Outline: as §1

Row | Cell Line | relative viability (kb NB 142-70 + AZD7762; first compound 0.1 µM) | relative viability (kb NB 142-70 + AZD7762; first compound 1 µM) | relative viability (kb NB 142-70 + AZD7762; first compound 3.162 µM) | relative viability ([1]; first compound 0.1 µM) | relative viability ([1]; first compound 1 µM) | relative viability ([1]; first compound 3.162 µM) | relative viability ([2]; first compound 0.02 µM) | relative viability ([2]; first compound 0.06325 µM) | relative viability ([2]; first compound 0.2 µM) | relative viability ([2]; first compound 0.6325 µM) | relative viability ([2]; first compound 2 µM) | relative viability ([3]; first compound 0.1 µM) | relative viability ([3]; first compound 1 µM) | relative viability ([3]; first compound 3.162 µM) | relative viability (kb NB 142-70 + Lapatinib; first compound 0.1 µM) | relative viability (kb NB 142-70 + Lapatinib; first compound 1 µM) | relative viability (kb NB 142-70 + Lapatinib; first compound 3.162 µM)
1 | NCI-H3122 | 1 | 1.03 | 1.02 | 0.578 | 0.649 | 0.551 | 0.0686 | 0.0831 | 0.127 | 0.113 | 0.116 | 0.987 | 1.04 | 0.972 | 0.872 | 1.01 | 0.947
2 | NCI-H2087 | 1.38 | 1.45 | 1.18 | 0.905 | 0.75 | 0.576 | 0.151 | 0.19 | 0.214 | 0.138 | 0.196 | 1.06 | 1.11 | 0.771 | 0.935 | 1.22 | 0.897
3 | LC-2-ad | 0.826 | 0.825 | 0.888 | 0.508 | 0.545 | 0.311 | 1.01 | 1.05 | 1.12 | 1.11 | 1.14 | 0.537 | 0.473 | 0.262 | 0.96 | 0.885 | 0.937
4 | NCI-H1915 | 0.679 | 0.821 | 0.851 | 1.01 | 0.889 | 0.905 | 0.817 | 0.756 | 0.779 | 0.815 | 0.769 | 0.793 | 0.739 | 0.519 | 1.05 | 1 | 0.845
5 | NCI-H1793 | 0.6 | 0.667 | 0.615 | 0.313 | 0.379 | 0.386 | 0.398 | 0.155 | 0.18 | 0.192 | 0.213 | 0.45 | 0.455 | 0.24 | 0.57 | 0.749 | 0.861
6 | RERF-LC-KJ | 1.02 | 0.985 | 1.04 | 0.504 | 0.519 | 0.374 | 1.32 | 1.29 | 1.27 | 1.19 | 1.1 | 1.05 | 0.762 | 0.468 | 0.956 | 0.88 | 0.942
7 | LXF-289 | 1.11 | 1.1 | 1.27 | 0.739 | 0.737 | 0.749 | 0.686 | 0.67 | 0.633 | 0.637 | 0.702 | 0.938 | 0.986 | 0.942 | 0.917 | 0.909 | 0.94
8 | PC-14 | 0.353 | 0.295 | 0.408 | 0.679 | 0.795 | 0.58 | 0.146 | 0.154 | 0.19 | 0.218 | 0.182 | 0.977 | 1.06 | 0.96 | 0.362 | 0.304 | 0.341
9 | NCI-H1666 | 0.879 | 0.714 | 0.89 | 0.405 | 0.346 | 0.204 | 0.982 | 1.06 | 0.925 | 1.07 | 0.93 | 1.08 | 1.04 | 0.858 | 0.637 | 0.598 | 0.335
10 | NCI-H2085 | 1.02 | 1.08 | 0.77 | 0.486 | 0.53 | 0.398 | 0.537 | 0.473 | 0.466 | 0.445 | 0.472 | 1.18 | 1.05 | 0.738 | 0.764 | 0.727 | 0.48
11 | NCI-H1734 | 0.585 | 0.589 | 0.507 | 0.429 | 0.432 | 0.363 | 0.201 | 0.213 | 0.181 | 0.24 | 0.187 | 0.794 | 0.706 | 0.431 | 1.06 | 0.895 | 0.523
12 | NCI-H2126 | 0.925 | 1.03 | 1.08 | 0.519 | 0.479 | 0.515 | 0.904 | 0.981 | 0.871 | 0.942 | 0.943 | 0.853 | 0.843 | 0.849 | 0.818 | 0.739 | 0.783
13 | EMC-BAC-2 | 1.13 | 1.15 | 0.731 | 0.581 | 0.562 | 0.431 | 1.11 | 1.23 | 1.18 | 1.17 | 1.18 | 1.16 | 1.28 | 1.27 | 0.942 | 0.898 | 0.743
14 | NCI-H1993 | 0.73 | 0.611 | 1.03 | 0.917 | 0.787 | 0.649 | 0.887 | 0.88 | 0.901 | 0.784 | 0.957 | 0.941 | 0.82 | 0.799 | 0.71 | 0.765 | 0.856
15 | NCI-H647 | 0.412 | 0.516 | 0.537 | 0.497 | 0.474 | 0.408 | 0.26 | 0.151 | 0.146 | 0.181 | 0.252 | 1.16 | 1.19 | 0.842 | 1.11 | 1.08 | 0.836
16 | NCI-H1792 | 0.803 | 0.907 | 0.857 | 0.323 | 0.269 | 0.396 | 0.337 | 0.583 | 0.552 | 0.585 | 0.484 | 0.604 | 0.619 | 0.644 | 0.87 | 0.85 | 1.03
17 | LOU-NH91 | 0.767 | 0.762 | 0.637 | 0.526 | 0.505 | 0.41 | 0.334 | 0.38 | 0.314 | 0.339 | 0.352 | 0.753 | 0.632 | 0.438 | 0.724 | 0.73 | 0.581
